The values below come from patent EP0584223B1, “NOVEL IMMUNOSUPPRESSIVE COMPOUNDS” (VERTEX PHARMACEUTICALS INCORPORATED, priority 1991, dated 1992).

Data set [1] concerns human peripheral blood lymphocytes (PBC). Put plainly: Mitogenesis assay, OKT3 stimulated proliferation. It counts as cell-based. The conditions noted are these: Lymphocyte, OKT3 (10^-4 dilution final), inhibition of proliferation, 3H-thymidine, read-out: OKT3.
Description: (§4) Fresh peripheral blood lymphocytes (PBLs) from LeukoPak cells or whole blood from random normal blood donors (tested HIV-negative and hepatitis negative) are isolated and separated by density centrifugation over Histopaque 1077 (Sigma Chemical Co., St. Louis, MO). […] The human allogeneic B cell lines used for activation of the fresh PBLs are EBV-transformed lymphocytes from normal healthy adult donors with two completely different HLA haplotypes. All cell lines were routinely tested for the presence of Mycoplasma contamination using the Gibco Mycotect test kit and are Mycoplasma-free. Culture medium consists of RPMI 1640 (Gibco, Grand Island, NY) containing penicillin (50 U/ml) and streptomycin (50 µg/ml), L-glutamine 2 mM, 2 mercaptoethanol (5 x 10^-5), 10% heat-inactivated FCS and 10 mM HEPES.
In the next data set the target is FK-506 binding protein (Homo sapiens, UniProt P62942). Put plainly: Competitive binding assay with [3H]dihydro-FK-506. The conditions noted are these: binding to FKBP; apparent Kd, competition with [3H]dihydro-FK-506.
Sequence of FK-506 binding protein (P62942 whole entry): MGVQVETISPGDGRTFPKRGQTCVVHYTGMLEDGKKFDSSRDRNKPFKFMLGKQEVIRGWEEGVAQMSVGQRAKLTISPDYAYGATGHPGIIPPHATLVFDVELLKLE
Data set [2] has as its system PBLs stimulated with LB human viral-transformed B lymphoblastoid cell line. Briefly: MLR bioassay, PBLs stimulated with LB cells. The data set is classed as cell-based. Particulars: mixed lymphocyte reaction, LB stimulator cells, inhibition of proliferation, read-out: LB. The text has this:
(§1) Fresh peripheral blood lymphocytes (PBLs) from LeukoPak cells or whole blood from random normal blood donors (tested HIV-negative and hepatitis negative) are isolated and separated by density centrifugation over Histopaque 1077 (Sigma Chemical Co., St. Louis, MO). The murine CTLL cytotoxic T cell line and the human Jurkat T cell line are from ATCC (CTLL-2 ATCC TIB214, JURKAT CLONE E6-1 ATCC TIBl52). The human allogeneic B cell lines used for activation of the fresh PBLs are EBV-transformed lymphocytes from normal healthy adult donors with two completely different HLA haplotypes. All cell lines were routinely tested for the presence of Mycoplasma contamination using the Gibco Mycotect test kit and are Mycoplasma-free. Culture medium consists of RPMI 1640 (Gibco, Grand Island, NY) containing penicillin (50 U/ml) and streptomycin (50 µg/ml), L-glutamine 2 mM, 2 mercaptoethanol (5 x 10^-5), 10% heat-inactivated FCS and 10 mM HEPES.
(§2) All chemical stocks were dissolved in DMSO.
(§3) Antigen activated proliferation of PBLs in a primary mixed lymphocyte reaction was assessed in the presence or absence of different concentrations of tested compounds and control drugs. 5 x 10^4 fresh PBLs were stimulated with 5 x 10^3 of Mitomycin C treated-allogeneic EBV-transformed […] cells, LB and JVM, in a final volume of 200 µl per well in 96-well round-bottomed plates (Mishell, B.B. and S.M. Shiigi, Selected Methods in Cellular Immunology W.H. Freeman and Co., San Francisco, CA (1980); Nelson, P.A. et al., Transplantation 50:286 (1990)). Cultures were pulsed on day 6, harvested 24 h later and counted as in previous section.

Data set [3] relates to CTLL-20 murine T cell line. Put plainly: IL-2 microassay, IL-2 dependent CTLL proliferation. The data set is classed as cell-based. The conditions noted are these: Mus musculus; inhibition of proliferation of cytotoxic T cells stimulated by IL-2; read-out: CTLL.
Description: as §4
Data set [4] can be described thus: Bioavailability in rats, blood levels by HPLC. The data set is classed as in vivo. The conditions noted are these: rat, oral gavage, 50 mg/kg single dose, .05h, whole blood.
The nature of data set [5]: Bioavailability in rats, blood levels by HPLC. It counts as in vivo. The conditions noted are these: rat, 50 mg/kg single dose, whole blood. As to the method: Bioavailability of compound (20) was determined in rats. A single dose of 50 mg/kg was administered by oral gavage or intraperitoneal (IP) injection in a vehicle consisting of olive oil-10% ethanol. Thereafter, animals were sacrificed at 0.5, 1, 2, 4, 8 and 12 hr, blood was collected into sodium heparin and immediately frozen. Whole blood was extracted with acetonitrile-methanol (90/10 vol:vol) and the concentration of compound per ml of blood was determined by HPLC. […] After oral administration, blood levels of 0.5µM, 1µM, 2µM, 12µM, and 3µM were measured at .05h, 1h, 2h, 4h, and 8h, respectively.

The test system of data set [6] is human peripheral blood lymphocytes (PBC). Put plainly: Mitogenesis assay, PMA plus ionomycin stimulated proliferation. The data set is classed as cell-based. Particulars: Lymphocyte, 3 h, read-out: PMA.
Description: as §4
The next data set has as its target FKBP (Homo sapiens, UniProt P62942). Briefly: Inhibition of FKBP PPIase (rotamase) activity, chymotrypsin-coupled assay. It counts as biochemical. The conditions noted are these: apparent Ki. The text has this:
The inhibition of the PPIase (rotamase) enzyme activity of the FKBP (apparent "Ki" values) can also be measured according to the methods described by either Harding, M.W. et al., Nature 341:758-760 (1989) or Siekierka, J.J. et al., Nature 341:755-757 (1989). The cis-trans isomerization of the […] peptide bond in a model substrate, N-succinyl-Ala-Ala-Pro-Phe-p-nitroanilide, is monitored spectrophotometrically in a coupled assay with chymotrypsin, which releases 4-nitroanilide from the trans form of the substrate. Fischer, G. et al., Nature 337:476-478 (1989). The inhibitory effect of the addition of different concentrations of inhibitor on the extent of the reaction is determined, and analysis of the change in first order rate constant as a function of inhibitor concentration yields an estimate of the apparent Ki value.

The subject of data set [7] is PBLs stimulated with JVM human viral-transformed B lymphoblastoid cell line. Put plainly: MLR bioassay, PBLs stimulated with JVM cells. Particulars: mixed lymphocyte reaction, JVM stimulator cells, inhibition of proliferation, read-out: JVM. The data set is classed as cell-based.
Description: as §1, §2, §3

Data set [8] has as its system T-cell clone stimulated with antibody to the T-cell receptor (TCR) and antibody to CD2. Put plainly: Table 3 assay 2: T-cell hybridoma + TCR/CD2 proliferation. The data set is classed as cell-based. The conditions noted are these: (3H)TdR incorporation, estimated.
The test system of a further data set is CTLL cells. Put plainly: Table 3 assay 4: CTLL proliferation + IL-2. It counts as cell-based. The conditions noted are these: Mus musculus, exogenous IL-2, (3H)TdR incorporation.
The subject of another data set is T-cell hybridoma. Briefly: Table 3 assay 3: apoptosis, activation-induced (anti-CD3) cell death. Particulars: at 1µg/ml; inhibition of activation-induced cell death, viable cell count. It counts as cell-based.
Data set [9] has as its system fresh human peripheral blood lymphocytes. Put plainly: Table 3 assay 1: human PBL + OKT3 proliferation. It counts as cell-based. The conditions noted are these: Lymphocyte, OKT3 antibody (anti-CD3) stimulation, (3H)TdR incorporation, estimated.

The structures appear in SMILES notation.

Sequence of FKBP (P62942 whole entry): as above

On to `COc1cc(C(=O)C(=O)N2CCCC[C@H]2C(=O)OC(CCCc2ccccc2)CCCc2ccccn2)cc(OC)c1OC` (stereo partly drawn) [Compound 20], for which the IC50 in [1] is 2000 nM; in data set [2] it was 2000 nM; in [3] it was 2000 nM; in [6], 1700 nM; in [7], 2500 nM. In addition, the Kd on FK-506 binding protein was determined as 4 nM. Also, in data set [4], the concentration at 0.05 h was found to be 500 nM. This compound also gave a concentration at 0.5 h in data set [5] (IP, 0.5h) of 700 nM. Also, the values for the concentration at 1 h in [5] (IP) and in data set [5] (oral gavage) were 22000 nM and 1000 nM, respectively. For the same compound, the concentration at 2 h was found to be 225000 nM in data set [5] (IP) and 2000 nM in data set [5] (oral gavage). Further, the concentration at 4 h came out at 45000 nM in [5] (IP) and 12000 nM in data set [5] (oral gavage). Further, the figures for the concentration at 8 h in data set [5] (IP) and in data set [5] (oral gavage) were 1000 nM and 3000 nM, respectively. For the same compound, the Ki on FKBP amounted to 1 nM.

Take `CO[C@H]1C[C@@H]2CC[C@@H](C)[C@@](O)(O2)C(=O)C(=O)N2CCCC[C@H]2C(=O)O[C@H]([C@H](C)C[C@@H]2CC[C@@H](O)[C@H](OC)C2)CC(=O)[C@H](C)/C=C(\C)[C@@H](O)[C@@H](OC)C(=O)[C@H](C)C[C@H](C)/C=C/C=C/C=C/1C` [Rapamycin]: the figures for the IC50 (in data set [8]; with CTLL cells; in data set [9]) were under 1 µg/mL, about 0.01 µg/mL and under 1 µg/mL, respectively. Also, the Apoptosis result with T-cell hybridoma is recorded as “Inactive at 1µg/ml”.
